Results as given in patent publication US5556751A, “Selective amplification system using Q-β replicase” (Amoco Corporation, priority 1994, dated 1996).

Assays:
[1] = molecular target: replication of MDV-1 by Qβ replicase (Escherichia virus Qbeta, UniProt P14647); assay: Inhibition of MDV-1 replication by dyes in linear-phase Qβ replicase reactions; assay type: biochemical, bacteriophage Qβ; conditions: for ability to inhibit the replication of MDV-1: linear-phase reactions, template RNA in excess over enzyme
Description: A number of dyes, including ethidium bromide, ethidium bromide homodimer, propidium iodide, proflavine, quinacrine, Hoescht 33258 (bis-benzamidine),dimidium bromide and acridine orange, were tested for their ability to inhibit the replication of MDV-1 in linear-phase reactions, i.e., where the template RNA is present in excess over the enzyme and the amount of replicated RNA thus increases linearly with time. […] One of the strongest inhibitors, propidium iodide, was selected for further study.

[2] = molecular target: T1, replication of wild type MDV-1 RNA by Qβ replicase (Escherichia virus Qbeta, UniProt P14647); assay: Effect of propidium iodide on replication of wild type MDV-1 RNA in a Qβ replicase preparation (32P-CTP incorporation time course); assay type: biochemical, bacteriophage Qβ
T1 construct: made in house
Description: Propidium iodide was tested for its effect on the replication of wild type RNA in a preparation of Qβ replicase. Propidium iodide in an amount of either 0, 1, or 3 μg/ml was added to a reaction buffer containing: 90 mM Tris HCl (pH7.5), 14 mM MgCl2, 0.4 mM each ATP, GTP, UTP, and CTP, and 10 μCi α- ^32 P-CTP. The Qβ replicase reaction was initiated in each sample by addition of 1.2 μg of Qβ replicase prepared according to the method of Eoyang and August, (1972), ibid. Aliquots of the reaction mixture were withdrawn every 5 minutes and spotted on DE81 filters (Schleicher & Schuell Inc., Keene, N.H.). The spotted filters were washed repeatedly with 0.5M NaPO4, (pH7.0) to remove unincorporated nucleotide. The filters were counted for Cerenkov radiation by standard procedures in a scintillation counter. Addition of propidium iodide delayed the point in time at which levels of incorporation resulting from the replication of wild type MDV-1 template became detectable.

Compound | ability to inhibit the replication of MDV-1 [1] | other results
CN1CCN(c2ccc3[nH]c(-c4ccc5[nH]c(-c6ccc(O)cc6)nc5c4)nc3c2)CC1 [Hoescht 33258, Hoescht 33258 (bis-benzamidine)] | except Hoescht 33258, inhibited | –
CN(C)c1ccc2cc3ccc(N(C)C)cc3nc2c1 [acridine orange] | inhibited | –
C[n+]1c(-c2ccccc2)c2cc(N)ccc2c2ccc(N)cc21 [dimidium bromide] | inhibited | –
Cl.Cl.Nc1ccc2c(c1)c(-c1ccccc1)[n+](CCCNCCNCCC[n+]1c(-c3ccccc3)c3cc(N)ccc3c3ccc(N)cc31)c1cc(N)ccc21.[Cl-].[Cl-] [ethidium bromide homodimer] | inhibited | –
CC[n+]1c(-c2ccccc2)c2cc(N)ccc2c2ccc(N)cc21 [ethidium bromide] | inhibited | –
Nc1ccc2cc3ccc(N)cc3nc2c1 [proflavine] | inhibited | –
CC[N+](C)(CC)CCC[n+]1c(-c2ccccc2)c2cc(N)ccc2c2ccc(N)cc21 [propidium iodide] | inhibited | inhibition at 1 µg/mL ([2]; propidium iodide 1 μg/ml, read-out: inhibition of the rate of replication in the geometric phase): 20 to 50%; delay of the appearance of replicated product ([2]; propidium iodide 1 μg/ml, wild type MDV-1 template): 2 to 5 min; reduction in the rate of replication ([2]; propidium iodide 3μg/ml): ~3 fold; delay of the appearance of product ([2]; propidium iodide 3μg/ml, wild type MDV-1 template): about 20 minutes; inhibition at 3 µg/mL ([1]; dye concentration about 3μg/ml): 70%
CCN(CC)CCCC(C)Nc1c2ccc(Cl)cc2nc2ccc(OC)cc12 (stereo not shown) [quinacrine] | inhibited | –
